Laboratory results from ChEMBL document CHEMBL4017521, “Direct NMR Probing of Hydration Shells of Protein Ligand Interfaces and Its Application to Drug Design” (J Med Chem, 2017).
Calls of active or inactive are those of the source. The calls are words filed in the database; no cut-off is given here.

Molecular target: Bromodomain-containing protein 4 (Homo sapiens, UniProt O60885)
Test: Inhibition of recombinant human N-terminal His6-tagged Brd4-BD1 expressed in Escherichia coli BL21(DE3) by LOGSY NMR titration method

Row | inhibition | IC50 [µM] | SMILES
1 | Active |  | CNc1cc(N(C)Cc2ccccc2)nn2c(C)nnc12
2 | Active |  | Cc1nnc2ccc(-c3ccccc3)nn12
3 | Active |  | Cc1nnc2c(N)cc(-c3cnn(C)c3Oc3ccccc3)nn12
4 | Active |  | Cc1nnc2ccc(N(C)Cc3ccc(F)c(F)c3)nn12
5 | Active |  | CNc1cc(-c2ccccc2)nn2c(C)nnc12
6 |  | 2 | Cc1nnc2ccc(-c3cnn(C)c3Oc3ccccc3)nn12
7 |  | 24 | COc1ccc(-c2ccc3nnc(C)n3n2)cc1OC
